Measurements taken from the supplement of paper PMC11208160.

Experiment: recombinant UMI read abundance after kanamycin selection (control-corrected) (log10(CPM+1)); higher = more efficient recombination; extreme values may be limits of the assay; sequences stand for … in AGTGCAGAGAAAATCGGCCAGTTTTCTCTGCCTGCAGTCCGCATGCCGTGGGACCCCTTGGGTTCTAACCTGTTGCCTAGATTTATGCAGCGGACTGCCTTTCTCCCAAAGTGATAAACCGG…AGGTTGGTTTCACT; site = the 11-nt donor
In short: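 Two replicates each of selected and unselected plating were used in this pooled Escherichia coli screen of donor and donor-binding-loop pairs for the IS621 bridge recombinase. Selection was with IPTG (0.07 mM) and kanamycin. Counts of recombinant UMIs, amplified across the donor–target junction, were converted to CPM, averaged, scaled by control-derived factors and reported as log10(CPM+1).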
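Note: IS621 bridge recombinase in Escherichia coli cells against a fixed T5 target plasmid.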

Row | Sequence | recombinant UMI read abundance (log10)
1 | GACAAACCATGGACCGGTTTTCCCGGTAATCCGTATTTGGT (site AACAAACCTAC) | 0
2 | GACAAACCATGGACCGGTTTTCCCGGTAATCCGTATTTGGT (site CACAAACCTAC) | 0
3 | GACAAACCATGGACCGGTTTTCCCGGTAATCCGTATTTGGT (site GAAAAACCTAC) | 0
4 | GACAAACCATGGACCGGTTTTCCCGGTAATCCGTATTTGGT (site GACAAAACTAC) | 0
5 | GACAAACCATGGACCGGTTTTCCCGGTAATCCGTATTTGGT (site GACAAACCTAA) | 0
6 | GACAAACCATGGACCGGTTTTCCCGGTAATCCGTATTTGGT (site GACAAACCTAC) | 0
7 | GACAAACCATGGACCGGTTTTCCCGGTAATCCGTATTTGGT (site GACAAACCTAG) | 0
8 | GACAAACCATGGACCGGTTTTCCCGGTAATCCGTATTTGGT (site GACAAACCTAT) | 0
9 | GACAAACCATGGACCGGTTTTCCCGGTAATCCGTATTTGGT (site GACAAACCTCC) | 0.0384
10 | GACAAACCATGGACCGGTTTTCCCGGTAATCCGTATTTGGT (site GACAAACCTGC) | 0
11 | GACAAACCATGGACCGGTTTTCCCGGTAATCCGTATTTGGT (site GACAAACCTTC) | 0
12 | GACAAACCATGGACCGGTTTTCCCGGTAATCCGTATTTGGT (site GACAAAGCTAC) | 0
13 | GACAAACCATGGACCGGTTTTCCCGGTAATCCGTATTTGGT (site GACAAATCTAC) | 0
14 | GACAAACCATGGACCGGTTTTCCCGGTAATCCGTATTTGGT (site GACAACCCTAC) | 0
15 | GACAAACCATGGACCGGTTTTCCCGGTAATCCGTATTTGGT (site GACAAGCCTAC) | 0.00399
16 | GACAAACCATGGACCGGTTTTCCCGGTAATCCGTATTTGGT (site GACAATCCTAC) | 0

Row | Sequence | recombinant UMI read abundance (log10)
17 | GACAAACCATGGACCGGTTTTCCCGGTAATCCGTATTTGGT (site GACACACCTAC) | 0
18 | GACAAACCATGGACCGGTTTTCCCGGTAATCCGTATTTGGT (site GACAGACCTAC) | 0
19 | GACAAACCATGGACCGGTTTTCCCGGTAATCCGTATTTGGT (site GACATACCTAC) | 0
20 | GACAAACCATGGACCGGTTTTCCCGGTAATCCGTATTTGGT (site GACCAACCTAC) | 0.00428
21 | GACAAACCATGGACCGGTTTTCCCGGTAATCCGTATTTGGT (site GACGAACCTAC) | 0
22 | GACAAACCATGGACCGGTTTTCCCGGTAATCCGTATTTGGT (site GACTAACCTAC) | 0
23 | GACAAACCATGGACCGGTTTTCCCGGTAATCCGTATTTGGT (site GAGAAACCTAC) | 0
24 | GACAAACCATGGACCGGTTTTCCCGGTAATCCGTATTTGGT (site GATAAACCTAC) | 0
25 | GACAAACCATGGACCGGTTTTCCCGGTAATCCGTATTTGGT (site GCCAAACCTAC) | 0
26 | GACAAACCATGGACCGGTTTTCCCGGTAATCCGTATTTGGT (site GGCAAACCTAC) | 0
27 | GACAAACCATGGACCGGTTTTCCCGGTAATCCGTATTTGGT (site GTCAAACCTAC) | 0
28 | GACAAACCATGGACCGGTTTTCCCGGTAATCCGTATTTGGT (site TACAAACCTAC) | 0
29 | GACAACCCATGGACCGGTTTTCCCGGTAATCCGTATTTGCT (site GACAACCCTAG) | 0.00684
30 | GACAACCCATGGACCGGTTTTCCCGGTAATCCGTATTTGGT (site GACAAACCTAC) | 0
31 | GACAACCCATGGACCGGTTTTCCCGGTAATCCGTATTTGGT (site GACAACCCTAC) | 0
32 | GACAACCCATGGACCGGTTTTCCCGGTAATCCGTATTTGGT (site GACAAGCCTAC) | 0.00882
